Data set [1] has as its target T1, falcipain-2 (FP-2) (Plasmodium falciparum, UniProt Q8I6U4).
T1 construct: made in house
T1 sequence (Q8I6U4 244-484): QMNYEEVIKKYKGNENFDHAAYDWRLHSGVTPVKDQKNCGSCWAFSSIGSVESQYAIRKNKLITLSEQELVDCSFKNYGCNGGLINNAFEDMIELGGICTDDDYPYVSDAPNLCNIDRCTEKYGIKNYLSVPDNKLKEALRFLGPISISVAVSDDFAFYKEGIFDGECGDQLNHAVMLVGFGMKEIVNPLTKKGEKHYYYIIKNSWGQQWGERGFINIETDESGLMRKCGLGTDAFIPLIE
The data set is described as follows: Enzyme inhibition assay, recombinant FP-2, substrate Z-Leu-Arg-AMC, fluorescence. As to conditions: for inhibition at 10 µM / Inhibition rate at 10 μM (%): FP-2 30 nM, pH 5.5, 30 min preincubation; for Inhibition rate at 10 μM (%): 10 μM compound. Format: biochemical. On the procedure: (§1) For the primary assay, the percent inhibitions of the compounds were measured at 10 μM. […] It is clear that the inhibitory activity of compound 2k was ~3 times higher than that of the lead compound 1, proving the validity of our chemical modifications. The anti-malarial potential of compound 1 in mice was investigated with Plasmodium berghei ANKA using a standard 4-day suppression test.
The purification and refolding of recombinant protein FP-2 was performed as described by Shenai et al. IC50 values against recombinant FP-2 were determined as described previously. FP-2 (30nM) was incubated for 30 min at room temperature in 100 mM sodium acetate, pH 5.5, 10 mM DTT, with different concentrations of tested inhibitors. Inhibitor solutions were prepared from stock in DMSO (maximum concentration of DMSO in the assay was 1%). After 30 min incubation, the substrate Z-Leu-Arg-AMC (benzoxycarbonyl-Leu-Arg-7-amino-4-methylcoumarin, Bachem AG) in the same buffer was added to a final concentration of 25 μM. The increase in fluorescence (excitation at 355 nm and emission at 460 nm) was monitored for 30 min at room temperature with an automated microtiter plate spectrofluorimeter (Molecular Devices, Flex Station). Half-maximal inhibitory concentration (IC50) was determined from plots of percent activity over compound concentration using GraphPad Prism software.

For data set [2], the target named is T1, falcipain-2 (FP-2). Briefly: Surface plasmon resonance-based FP-2/ligand binding assay (Biacore 3000, CM5 chip). The conditions noted are these: SPR, immobilized FP-2, steady state affinity fitting, 25°C, HBS-EP pH 7.4. The source says:
Targeting the crystal structure of FP-2 (PDB entry 2GHU), a total of 80,000 compounds were subsequently docked and ranked according to the Glide and GAsDock software. Finally, 81 compounds were purchased and submitted to biological evaluations against FP-2. Because enzymatic assays are time-consuming, surface plasmon resonance (SPR) measurements were used for the primary screening to determine the binding affinity of these 81 candidate molecules to FP-2. […] Among the 81 compounds, the biosensor RU of compound 1 was concentration-dependent. […] Thus, compound 1 could be designated as a binder (or hit) of FP-2.
The purification and refolding of recombinant protein FP-2 was performed as described by Shenai et al. The binding affinity of compound 1 to FP-2 in vitro was determined based on surface plasmon resonance (SPR) technology. The measurement was performed using the dual flow cell Biacore 3000 instrument (Biacore AB, Uppsala, Sweden). Immobilization of FP-2 to the hydrophilic carboxymethylated dextran matrix of the sensor chip CM5 (Biacore) was carried out by the standard primary amine coupling reaction wizard. […] The equilibrium constants (KD values) evaluating the protein–ligand binding affinities were determined by the steady state affinity fitting analysis of the Biacore data.

Another data set has as its system Plasmodium berghei ANKA. Briefly: Standard 4-day suppression test in mice. The format is in vivo. As to conditions: 9 mg/kg body weight intragastric daily for 4 days following infection, unpublished data. As for the experimental part: as §1
Where [3] appears, read: pH 5.5, 10 μM compound, read-out: Inhibition rate at 10 μM (%).
Setting [4] is: pH 5.5, read-out: Inhibition rate at 10 μM (%), 10 μM compound.

Like-named read-outs stand apart in the source and are kept apart here.

Regarding `O=C(NCc1ccccc1)[C@@H](Cc1c[nH]c2ccccc12)NCc1ccccc1` [Compound 2c, (R)-2-Benzylamino-3-(1H-indol-3-yl)-N-benzyl-propanamide], the melting point was 38 to 40 °C. The inhibition at 10 µM on falcipain-2 (FP-2) [1] (setting [3]) came out at 13%.
On to `COC(=O)c1ccc(CNC(=O)[C@@H](Cc2c[nH]c3ccccc23)NC(=O)Oc2ccccc2)cc1` [Compound 2l, (R)-2-Phenoxycarboxamido-3-(1H-indol-3-yl)-N-(4-methoxycarbonyl-phenylmethyl)-propanamide], for which, on falcipain-2 (FP-2) [1], the IC50 is 13.3 µM and the “Inhibition rate at 10 μM (%)” value is recorded as 32.9%. In addition, the inhibition at 10 µM at falcipain-2 (FP-2) [1] (setting [4]) is more than 20%.
`O=C(N[C@H](Cc1c[nH]c2ccccc12)C(=O)Nc1ccc2c(c1)OCO2)Oc1ccccc1` [Compound 2g, (R)-2-Phenoxycarboxamido-3-(1H-indol-3-yl)-N-(benzo[1,3]dioxol-5-yl)-propanamide] registered a melting point of 186 to 188 °C. Moreover, at falcipain-2 (FP-2) [1] (setting [4]), the inhibition at 10 µM came to 3.1%.
`O=C(N[C@H](Cc1c[nH]c2ccccc12)C(=O)Nc1ccc(F)cc1)Oc1ccccc1` [Compound 2e, (R)-2-Phenoxycarboxamido-3-(1H-indol-3-yl)-N-(4-fluorophenyl)-propanamide]: the melting point was in the range of 185 to 189 °C. The inhibition at 10 µM on falcipain-2 (FP-2) [1] (setting [4]) is 3.1%.
Regarding `O=C(N[C@@H](Cc1c[nH]c2ccccc12)C(=O)NCc1ccccc1)Oc1ccccc1` [Compound 2a, (S)-2-Phenoxycarboxamido-3-(1H-indol-3-yl)-N-benzylpropanamide], the inhibition at 10 µM at falcipain-2 (FP-2) [1] (setting [4]) turned out to be 14.3%.
Consider `CCOc1ccc(NC(=O)[C@@H](Cc2c[nH]c3ccccc23)NC(=O)Oc2ccccc2)cc1` [Compound 2f, (R)-2-Phenoxycarboxamido-3-(1H-indol-3-yl)-N-(4-ethoxyphenyl)-propanamide], for which the melting point is 180 to 184 °C. For the same compound, the inhibition at 10 µM at falcipain-2 (FP-2) [1] (setting [4]) was 13.6%.
In turn, `O=C(N[C@H](Cc1c[nH]c2ccccc12)C(=O)Nc1ccccc1)Oc1ccccc1` [Compound 2d, (R)-2-Phenoxycarboxamido-3-(1H-indol-3-yl)-N-phenylpropanamide] came in with a melting point of 195 to 197 °C. For the same compound, the inhibition at 10 µM at falcipain-2 (FP-2) [1] (setting [4]) came out at 11.8%.
In the same order, the values of `O=C(N[C@H](Cc1c[nH]c2ccccc12)C(=O)NCc1cccs1)Oc1ccccc1` [Compound 2i, (R)-2-Phenoxycarboxamido-3-(1H-indol-3-yl)-N-[(thiophen-2-yl)methyl]-propanamide] are 184 to 186 °C and 2.2%.
In the case of `O=C(N[C@H](Cc1c[nH]c2ccccc12)C(=O)NCc1ccc([N+](=O)[O-])cc1)Oc1ccccc1` [Compound 2k, (R)-2-Phenoxycarboxamido-3-(1H-indol-3-yl)-N-[(4-nitrophenyl)methyl]-propanamide], the IC50 on falcipain-2 (FP-2) [1] came out at 10 µM. In addition, on falcipain-2 (FP-2) [1] (ratio of inhibitory activity versus compound 1), the “FP-2 inhibitory activity relative to lead compound 1 (fold better)” value is ~ 3.
As to `O=C(Cc1ccccc1)N[C@H](Cc1c[nH]c2ccccc12)C(=O)NCc1ccccc1` [Compound 2b, (R)-2-(2-Phenylacetamido)-3-(1H-indol-3-yl)-N-benzylpropanamide], the “Inhibition rate at 10 μM (%)” value on falcipain-2 (FP-2) [1] came to 25.7%. Further, the inhibition at 10 µM on falcipain-2 (FP-2) [1] (setting [3]) was more than 20%. The 50% inhibitory concentration (IC50) at falcipain-2 (FP-2) [1] (recombinant FP-2 30 nM, Z-Leu-Arg-AMC 25 μM, pH 5.5, read-out: IC50) stood at 39.4 µM.
The compound `C#CCNC(=O)[C@@H](Cc1c[nH]c2ccccc12)NC(=O)Oc1ccccc1` [Compound 2j, (R)-2-Phenoxycarboxamido-3-(1H-indol-3-yl)-N-(prop-2-yn-1-yl)-propanamide] came in with a melting point of 173 to 177 °C. For the same compound, the inhibition at 10 µM on falcipain-2 (FP-2) [1] (setting [4]) was 6.6%.
As for `O=C(N[C@H](Cc1c[nH]c2ccccc12)C(=O)NCc1ccccc1)Oc1ccccc1` [Compound 1, (R)-2-Phenoxycarboxamido-3-(1H-indol-3-yl)-N-benzylpropanamide], the affinity at falcipain-2 (FP-2) [2], expressed as Kd, was 5.88 µM. Moreover, on falcipain-2 (FP-2) [1], the IC50 amounted to 29.7 µM and the “Inhibition rate at 10 μM (%)” value is given as 29.4%. Besides, on falcipain-2 (FP-2) [1] (setting [4]), the inhibition at 10 µM was more than 20%. In addition, in the data set with Plasmodium berghei ANKA, the “reduction in parasitemia relative to normal control” value is recorded as less than 50%.

Values taken from publication PMC6253880, “2-Amido-3-(1H-Indol-3-yl)-N-Substitued-Propanamides as a New Class of Falcipain-2 Inhibitors. 1. Design, Synthesis, Biological Evaluation and Binding Model Studies” (Molecules, 2009).
